In patent US8815934B2, “2-Phenyl-1-[4-(2-Aminoethoxy)-Benzyl]-Indole and estrogen formulations” (Wyeth LLC, priority 1998, dated 2014):

What was measured:
[1] = tested on: Immature Sprague-Dawley rats; assay: Rat uterotrophic/antiuterotrophic bioassay; assay type: in vivo; settings: immature female rats, daily ip; for Uterine wt mg 100 uG cmpd + 1uG 17β-estradiol: 100 uG compound + 1 uG 17β-estradiol; for Uterine wt mg 100 uG cmpd: 100 uG compound, wet weight
Protocol: The estrogenic and antiestrogenic properties of the compounds were determined in an immature rat uterotrophic assay (4 day) that (as described previously by L. J. Black and R. L. Goode, Life Sciences, 26, 1453 (1980)). Immature Sprague-Dawley rats (female, 18 days old) were tested in groups of six. […] On day 4 the animals were sacrificed by CO2 asphyxiation and their uteri were removed and stripped of excess lipid, any fluid removed and the wet weight determined. A small section of one horn was submitted for histology and the remainder used to isolate total RNA in order to evaluate complement component 3 gene expression.

estrogen receptor = estrogen receptor (Homo sapiens (Human), UniProt P03372); assay: 2×VIT ERE infection luciferase assay; assay type: cell-based; settings: for Infection Luciferase Activity, 1 uM + 17β estradiol: 1 uM compound + 1 nM 17β-estradiol (estrogen antagonism); for Infection Luciferase Activity, 1 uM: 1 uM compound alone, percentage of activity as compared to 17β-estradiol
Protocol: Chinese Hamster Ovary cells (CHO) which had been stably transfected with the human estrogen receptor were maintained in DMEM+10% fetal bovine serum (FBS). 48 h prior to treatment the growth medium was replaced with DMEM lacking phenol red+10% dextran coated charcoal stripped FBS (treatment medium). Cells were plated at a density of 5000 cells/well in 96-well plates containing 200 μL of medium/well.
Reporter DNA (Promega plasmid pGL2 containing two tandem copies of the vitellogenin ERE in front of the minimal thymidine kinase promoter driving the luciferase gene) was combined with the B-galactosidase expression plasmid pCH110 (Pharmacia) and carrier DNA (pTZ18U) in the following ratio:
20 uL of this mixture was added to each well of cells and remained on the cells for 16 h. […] Each treatment condition was performed on 8 wells (n=8) which were incubated for 24 h prior to the luciferase assay.
After removing the PBS, 25 uL of Promega lysis buffer was added to each well and allowed to stand at room temperature for 15 min, followed by 15 min at −80° C. and 15 min at 37° C. 20 uL of lysate was transferred to an opaque 96 well plate for luciferase activity evaluation and the remaining lysate (5 uL) was used for the B-galactosidase activity evaluation (normalize transfection). The luciferan substrate (Promega) was added in 100 uL aliquots to each well automatically by the luminometer and the light produced (relative light units) was read 10 seconds after addition.
To the remaining 5 uL of lysate 45 uL of PBS was added. Then 50 uL of Promega B-galactosidase 2× assay buffer was added, mixed well and incubated at 37° C. for 1 hour. A plate containing a standard curve (0.1 to 1.5 milliunits in triplicate) was set up for each experimental run. The plates were analyzed on a Molecular Devices spectrophotometric plate reader at 410 nm. The optical densities for the unknown were converted to milliunits of activity by mathematical extrapolation from the standard curve.
The luciferase data was generated as relative light units (RLUs) accumulated during a 10 second measurement and automatically transferred to a JMP (SAS Inc) file where background RLUs were subtracted. The B-galactosidase values were automatically imported into the file and these values were divided into the RLUs to normalize the data. The mean and standard deviations were determined from a n=8 for each treatment. […] These techniques are described by Tzukerman, M. T., Esty, A., Santiso-Mere, D., Danielian, P., Parker, M. G., Stein, R. B., Pike, J. W. and McDonnel, D. P. (1994). Human estrogen receptor transactivational capacity was determined by both cellular and promoter context and mediated by two functionally distinct intramolecular regions (see Molecular Endocrinology, 8:21-30).

estrogen receptor, sequence (P03372 whole entry): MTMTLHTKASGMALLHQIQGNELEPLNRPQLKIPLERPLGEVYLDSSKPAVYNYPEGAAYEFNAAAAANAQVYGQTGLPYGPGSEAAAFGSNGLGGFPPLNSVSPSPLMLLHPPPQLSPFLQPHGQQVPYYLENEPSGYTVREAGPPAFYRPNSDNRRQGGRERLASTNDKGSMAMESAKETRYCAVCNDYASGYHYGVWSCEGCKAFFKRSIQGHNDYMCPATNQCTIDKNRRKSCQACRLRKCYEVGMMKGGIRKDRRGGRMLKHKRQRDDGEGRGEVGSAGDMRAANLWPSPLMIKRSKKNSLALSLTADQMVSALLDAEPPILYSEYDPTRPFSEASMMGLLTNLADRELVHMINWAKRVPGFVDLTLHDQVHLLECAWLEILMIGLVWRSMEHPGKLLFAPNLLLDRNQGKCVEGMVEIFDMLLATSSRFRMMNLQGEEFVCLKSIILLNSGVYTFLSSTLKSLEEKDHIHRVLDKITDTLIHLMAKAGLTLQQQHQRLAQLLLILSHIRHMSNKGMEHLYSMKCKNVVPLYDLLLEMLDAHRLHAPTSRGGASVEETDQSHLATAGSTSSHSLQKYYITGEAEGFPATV

Infection Luciferase Activity, 1 uM + 17β estradiol (estrogen receptor) [%]	Infection Luciferase Activity, 1 uM (estrogen receptor) [%]	Structure (SMILES)	Uterine wt mg 100 uG cmpd + 1uG 17β-estradiol [1] [mg]	Uterine wt mg 100 uG cmpd [1] [mg]
–	–	Cc1c(-c2ccc(O)cc2)n(Cc2ccc(OCCN3CCCCC3)cc2)c2ccc(O)cc12 [No. 97, 2-(4-Hydroxy-phenyl)-3-methyl-1-[4-(2-piperidin-1-yl-ethoxy)-benzyl]-1H-indol-5-ol]	24.3	27.4
–	–	COc1cc(Cn2c(-c3ccc(O)cc3)c(C)c3cc(O)ccc32)ccc1OCCN1CCCCCC1 [No. 168, 2-(4-Hydroxy-phenyl)-1-[3-methoxy-4-(2-azepan-1-yl-ethoxy)-benzyl]-3-methyl-1H-indol-5-ol]	81.7	43.2
10	11	Cc1c(-c2ccc(O)cc2)n(Cc2ccc(OCCN3CC4(C)CC3CC(C)(C)C4)cc2)c2ccc(O)cc12 (stereo not shown) [No. 115, 2-(4-Hydroxy-phenyl)-3-methyl-1-{4-[2-(1,3,3-trimethyl-6-aza-bicyclo[3.2.1]oct-6-yl)-ethoxy]-benzyl}-1H-indol-5-ol]	–	–
–	–	CCN(CC)CCOc1ccc(Cn2c(-c3ccc(O)cc3)c(C)c3cc(O)ccc32)cc1 [No. 101, 2-(4-Hydroxy-phenyl)-3-methyl-1-[4-(2-diethyl-1-yl-ethoxy)-benzyl]-1H-indol-5-ol]	71.0	65.1
9	7	Oc1ccc(-c2c(Cl)c3cc(O)ccc3n2Cc2ccc(OCCN3CCCC3)cc2)cc1 [No. 133, 3-Chloro-2-(4-hydroxy-phenyl)-1-[4-(2-pyrrolidin-1-yl-ethoxy)-benzyl]-1H-indol-5-ol]	–	–
5	5	CCCCN(C)CCOc1ccc(Cn2c(-c3ccc(O)cc3)c(C)c3cc(O)ccc32)cc1 [No. 105, 1-{4-[2-(Butyl-methyl-amino)-ethoxy]-benzyl}-2-(4-hydroxy-phenyl)-3-methyl-1H-indol-5-ol]	–	–
23	25	Cc1c(-c2ccc(O)cc2)n(Cc2ccc(OCCCN3CCCCC3)cc2)c2ccc(O)cc12 [No. 166, 2-(4-Hydroxy-phenyl)-3-methyl-1-{4-[3-(piperidin-1-yl)-propoxy]-benzyl}-1H-indol-5-ol]	–	–
10	9	CCCN(CCC)CCOc1ccc(Cn2c(-c3ccc(O)cc3)c(C)c3cc(O)ccc32)cc1 [No. 102, 1-[4-(2-Dipropylamino-ethoxy)-benzyl]-2-(4-hydroxy-phenyl)-3-methyl-1H-indol-5-ol]	–	–
10	8	Cc1c(-c2ccc(O)cc2)n(Cc2ccc(OCCN3CCC(C)CC3)cc2)c2ccc(O)cc12 [No. 110, 2-(4-Hydroxy-phenyl)-3-methyl-1-{4-[2-(4-methyl-piperidin-1-yl)-ethoxy]-benzyl}-1H-indol-5-ol]	–	–
–	–	Cc1c(-c2ccc(O)cc2)n(Cc2ccc(OCCN3CCCCC3)cc2)c2ccc(F)cc12 [No. 94, 4-{5-Fluoro-3-methyl-1-[4-(2-piperidin-1-yl-ethoxy)-benzyl]-1H-indol-2-yl}-phenol]	93.7	28.1
–	–	CC/C(=C(\c1ccccc1)c1ccc(OCCN(C)C)cc1)c1ccccc1 [tamoxifen]	–	71.4
16	14	Cc1c(-c2ccc(O)cc2)n(Cc2ccc(OCCN3CCC(O)CC3)cc2)c2ccc(O)cc12 [No. 113, 2-(4-Hydroxy-phenyl)-1-{4-[2-(4-hydroxy-piperidin-1-yl)-ethoxy]-benzyl}-3-methyl-1H-indol-5-ol]	–	–
–	–	Cc1c(-c2ccc(O)cc2)n(Cc2ccc(OCCN(C)C)cc2)c2ccc(O)cc12 [No. 100, 2-(4-Hydroxy-phenyl)-3-methyl-1-[4-(2-dimethyl-1-yl-ethoxy)-benzyl]-1H-indol-5-ol]	68.7	59.9
−1	1	Cc1c(-c2ccc(O)cc2)n(Cc2ccc(OCCN3C[C@@H]4CC[C@H]3C4)cc2)c2ccc(O)cc12 [No. 114, (1S,4R)-1-{4-[2-(2-Aza-bicyclo[2.2.1]hept-2-yl)-ethoxy]-benzyl}-2-(4-hydroxy-phenyl)-3-methyl-1H-indol-5-ol]	–	–
23	25	Cc1c(-c2ccc(O)cc2)n(Cc2ccc(OCCN3CCCC(C)(C)C3)cc2)c2ccc(O)cc12 [No. 111, 1-{4-[2-(3,3-Dimethyl-piperidin-1-yl)-ethoxy]-benzyl}2-(4-hydroxy-phenyl)-3-methyl-1H-indol-5-ol]	–	–
–	–	N#Cc1c(-c2ccc(O)cc2)n(Cc2ccc(OCCN3CCCCCC3)cc2)c2ccc(O)cc12 [No. 139, 1-[4-(2-Azepan-1-yl-ethoxy)-benzyl]-5-hydroxy-2-(4-hydroxy-phenyl)-1H-indole-3-carbonitrile]	45.0	30.4
−4	−4	Cc1c(-c2ccccc2)n(Cc2ccc(OCCN3CCCCCC3)cc2)c2ccc(O)cc12 [No. 95, 1-[4-(2-Azepan-1-yl-ethoxy)-benzyl]-3-methyl-2-phenyl-1H-indol-5-ol]	–	–
10	13	CCCCN(CCCC)CCOc1ccc(Cn2c(-c3ccc(O)cc3)c(C)c3cc(O)ccc32)cc1 [No. 103, 1-[4-(2-Dibutylamino-ethoxy)-benzyl]-2-(4-hydroxy-phenyl)-3-methyl-1H-indol-5-ol]	–	–

Structure (SMILES)	Infection Luciferase Activity, 1 uM + 17β estradiol (estrogen receptor) [%]	Infection Luciferase Activity, 1 uM (estrogen receptor) [%]	Uterine wt mg 100 uG cmpd + 1uG 17β-estradiol [1] [mg]	Uterine wt mg 100 uG cmpd [1] [mg]
Cc1c(-c2ccc(O)cc2)n(Cc2ccc(OCCN3CCCC3)cc2)c2ccc(O)cc12 [No. 96, 2-(4-Hydroxy-phenyl)-3-methyl-1-[4-(2-pyrollidin-1-yl-ethoxy)-benzyl]-1H-indol-5-ol]	8	12	–	–
Cc1c(-c2ccc(O)cc2)n(Cc2ccc(OCCN(C(C)C)C(C)C)cc2)c2ccc(O)cc12 [No. 104, 1-[4-(2-Diisopropylamino-ethoxy)-benzyl]-2-(4-hydroxy-phenyl)-3-methyl-1H-indol-5-ol]	7	7	–	–
Cc1c(-c2ccc(O)cc2)n(Cc2ccc(OCCN3CCCC(C)C3)cc2)c2ccc(O)cc12 (stereo not shown) [No. 109, 2-(4-Hydroxy-phenyl)-3-methyl-1-{4-[2-(3-methyl-piperidin-1-yl)-ethoxy]-benzyl}-1H-indol-5-ol]	5	6	–	–
Cc1c(-c2cccc(O)c2)n(Cc2ccc(OCCN3CCCCC3)cc2)c2ccc(O)cc12 [No. 127, 2-(3-Hydroxy-phenyl)-3-methyl-1-[4-(2-piperidin-1-yl-ethoxy)-benzyl]-1H-indol-5-ol]	−4	−3	–	–
CCc1c(-c2ccc(O)cc2)n(Cc2ccc(OCCN3CCCCC3)cc2)c2ccc(O)cc12 [No. 137, 2-(4-Hydroxy-phenyl)-3-ethyl-1-[4-(2-piperidin-1-yl-ethoxy)-benzyl]-1H-indol-5-ol]	8	6	–	–
Cc1c(-c2ccc(O)cc2)n(Cc2ccc(OCCN3CCCCC3C)cc2)c2ccc(O)cc12 (stereo not shown) [No. 108, 2-(4-Hydroxy-phenyl)-3-methyl-1-{4-[2-(2-methyl-piperidin-1-yl)-ethoxy]-benzyl}-1H-indol-5-ol]	10	11	–	–
Cc1c(-c2ccccc2)n(Cc2ccc(OCCN3CCCCC3)cc2)c2ccc(O)cc12 [No. 87, 3-Methyl-2-phenyl-1-[4-(2-piperidine-1-yl-ethoxy)-benzyl]-1H-indol-5-ol]	0	0	–	–
